Patent US12492188B2, “1H-benzo[D]imidazole derivatives as TLR9 inhibitors for the treatment of fibrosis” (BRISTOL-MYERS SQUIBB COMPANY, priority 2020, dated 2025)
Like-named read-outs stand apart in the source and are kept apart here.

Legend:
Format in all cases: cell-based
human TLR9 = target: T1, human TLR9 (Homo sapiens, UniProt Q9NR96); assay: TLR9 inhibition reporter assay (HEK-Blue cells, secreted embryonic alkaline phosphatase reporter)
T1 construct: host or cells: HEK-Blue cells (HEK293-derived reporter line)
T1 sequence (Q9NR96 26-1032): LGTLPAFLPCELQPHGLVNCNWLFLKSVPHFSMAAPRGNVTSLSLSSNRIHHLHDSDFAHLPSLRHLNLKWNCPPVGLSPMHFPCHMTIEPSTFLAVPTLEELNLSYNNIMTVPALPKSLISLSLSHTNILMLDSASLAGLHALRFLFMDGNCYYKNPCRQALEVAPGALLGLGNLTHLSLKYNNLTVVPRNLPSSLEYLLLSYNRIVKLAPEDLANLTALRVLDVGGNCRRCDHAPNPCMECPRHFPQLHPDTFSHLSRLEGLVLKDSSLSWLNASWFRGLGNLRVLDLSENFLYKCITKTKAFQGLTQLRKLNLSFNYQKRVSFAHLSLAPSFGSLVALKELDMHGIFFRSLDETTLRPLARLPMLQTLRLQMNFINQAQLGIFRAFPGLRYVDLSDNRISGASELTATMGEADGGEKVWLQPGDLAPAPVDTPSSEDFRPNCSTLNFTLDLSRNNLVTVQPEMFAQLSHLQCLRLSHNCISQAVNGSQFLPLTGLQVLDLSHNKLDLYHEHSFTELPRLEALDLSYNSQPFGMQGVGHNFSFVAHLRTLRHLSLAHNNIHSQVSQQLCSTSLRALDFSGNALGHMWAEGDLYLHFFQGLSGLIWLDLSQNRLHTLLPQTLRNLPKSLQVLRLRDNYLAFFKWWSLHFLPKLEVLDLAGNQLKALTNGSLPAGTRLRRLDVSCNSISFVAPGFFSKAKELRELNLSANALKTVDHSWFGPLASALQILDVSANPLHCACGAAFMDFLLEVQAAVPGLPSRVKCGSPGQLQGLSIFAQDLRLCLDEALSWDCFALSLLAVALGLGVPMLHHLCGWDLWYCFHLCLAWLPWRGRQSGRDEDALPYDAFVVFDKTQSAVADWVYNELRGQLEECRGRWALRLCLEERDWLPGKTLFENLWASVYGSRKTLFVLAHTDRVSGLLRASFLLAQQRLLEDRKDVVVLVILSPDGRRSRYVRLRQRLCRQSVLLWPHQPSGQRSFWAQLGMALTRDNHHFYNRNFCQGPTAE
Method in brief: (§1)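 Steps: seed receptor-specific HEK-Blue cells; add compound, 0.05 nM–50 μM; wait 30 min at room temperature; add final gardiquimod 7.5 μM, R848 15.9 μM or ODN2006 5 nM for TLR7, TLR8 or TLR9; incubate 22 h at 37 °C; detect NF-κB/AP-1-driven SEAP.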

human TLR7 = target: T2, human TLR7 (Homo sapiens, UniProt Q9NYK1); assay: TLR7 inhibition reporter assay (HEK-Blue cells, secreted embryonic alkaline phosphatase reporter); conditions: HEK-Blue cells overexpressing human TLR7, stimulated with gardiquimod 7.5 μM; read-out: TLR 7 IC50
T2 construct: host or cells: HEK-Blue cells (HEK293-derived reporter line)
T2 sequence (Q9NYK1 27-1049): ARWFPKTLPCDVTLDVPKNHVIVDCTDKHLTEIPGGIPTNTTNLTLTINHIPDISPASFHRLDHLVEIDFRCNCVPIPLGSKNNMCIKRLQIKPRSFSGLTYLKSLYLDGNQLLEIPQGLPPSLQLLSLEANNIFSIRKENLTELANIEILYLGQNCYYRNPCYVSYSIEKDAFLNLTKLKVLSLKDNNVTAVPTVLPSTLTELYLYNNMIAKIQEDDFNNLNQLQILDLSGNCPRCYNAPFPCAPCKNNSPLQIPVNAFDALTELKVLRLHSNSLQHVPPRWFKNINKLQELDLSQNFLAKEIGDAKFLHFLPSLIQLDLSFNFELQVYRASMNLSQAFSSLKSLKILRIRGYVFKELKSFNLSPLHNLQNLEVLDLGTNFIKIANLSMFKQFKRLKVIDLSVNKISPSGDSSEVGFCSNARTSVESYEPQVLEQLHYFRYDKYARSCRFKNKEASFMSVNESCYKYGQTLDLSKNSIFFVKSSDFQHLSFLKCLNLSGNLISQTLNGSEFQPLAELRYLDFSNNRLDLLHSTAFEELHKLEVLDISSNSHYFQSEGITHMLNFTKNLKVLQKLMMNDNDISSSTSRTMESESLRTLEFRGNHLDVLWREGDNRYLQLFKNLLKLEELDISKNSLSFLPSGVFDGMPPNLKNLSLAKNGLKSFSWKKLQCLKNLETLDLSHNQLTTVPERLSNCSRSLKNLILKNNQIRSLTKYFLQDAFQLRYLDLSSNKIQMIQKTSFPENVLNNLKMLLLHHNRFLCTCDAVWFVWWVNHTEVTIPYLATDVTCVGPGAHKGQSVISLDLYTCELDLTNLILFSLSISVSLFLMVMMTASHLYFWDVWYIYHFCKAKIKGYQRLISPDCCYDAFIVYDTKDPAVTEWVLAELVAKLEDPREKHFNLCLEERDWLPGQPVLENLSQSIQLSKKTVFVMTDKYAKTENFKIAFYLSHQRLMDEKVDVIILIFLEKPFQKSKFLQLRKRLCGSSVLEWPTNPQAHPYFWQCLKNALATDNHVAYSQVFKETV
Method in brief: as §1

human TLR8 = target: T3, human TLR8 (Homo sapiens, UniProt Q9NR97); assay: TLR8 inhibition reporter assay (HEK-Blue cells, secreted embryonic alkaline phosphatase reporter); conditions: HEK-Blue cells overexpressing human TLR8, stimulated with R848 15.9 μM; read-out: TLR 8 IC50
T3 construct: host or cells: HEK-Blue cells (HEK293-derived reporter line)
T3 sequence (Q9NR97 27-1041): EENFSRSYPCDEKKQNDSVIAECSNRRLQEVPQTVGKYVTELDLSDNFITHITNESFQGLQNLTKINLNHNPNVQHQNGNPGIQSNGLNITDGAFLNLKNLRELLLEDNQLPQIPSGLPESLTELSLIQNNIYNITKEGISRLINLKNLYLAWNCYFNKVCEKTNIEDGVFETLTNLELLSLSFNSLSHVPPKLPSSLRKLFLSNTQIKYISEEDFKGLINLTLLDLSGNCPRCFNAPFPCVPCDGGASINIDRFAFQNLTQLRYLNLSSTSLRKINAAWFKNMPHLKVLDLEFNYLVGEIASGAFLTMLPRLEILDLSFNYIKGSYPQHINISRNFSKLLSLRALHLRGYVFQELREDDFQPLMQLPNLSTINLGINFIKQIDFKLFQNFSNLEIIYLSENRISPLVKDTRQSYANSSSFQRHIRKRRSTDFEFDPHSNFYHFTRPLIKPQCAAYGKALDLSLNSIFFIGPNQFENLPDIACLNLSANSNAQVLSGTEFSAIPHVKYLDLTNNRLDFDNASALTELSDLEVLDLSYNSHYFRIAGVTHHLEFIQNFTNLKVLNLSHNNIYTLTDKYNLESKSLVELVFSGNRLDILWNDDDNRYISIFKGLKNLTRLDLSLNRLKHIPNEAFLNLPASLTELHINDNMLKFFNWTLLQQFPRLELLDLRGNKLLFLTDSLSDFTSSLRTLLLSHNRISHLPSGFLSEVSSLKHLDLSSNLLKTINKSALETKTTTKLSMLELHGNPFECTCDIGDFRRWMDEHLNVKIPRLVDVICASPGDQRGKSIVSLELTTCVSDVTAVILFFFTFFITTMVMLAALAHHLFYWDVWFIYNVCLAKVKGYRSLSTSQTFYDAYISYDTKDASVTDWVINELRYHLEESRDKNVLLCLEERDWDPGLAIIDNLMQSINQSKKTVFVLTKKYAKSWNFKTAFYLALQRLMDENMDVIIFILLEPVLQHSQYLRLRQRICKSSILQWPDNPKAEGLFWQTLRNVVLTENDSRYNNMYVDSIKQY
Method in brief: as §1

[1] = HEK-Blue cells overexpressing human TLR9, stimulated with ODN2006 5 nM, read-out: TLR 9 IC50

| Structure (SMILES) | IC50 (human TLR9) [nM] | IC50 (human TLR9; [1]) [nM] | IC50 (human TLR7) [µM] | IC50 (human TLR8) [µM] |
| --- | --- | --- | --- | --- |
| CS(=O)(=O)c1ccc(-c2nc3ccc(C4CCN(C5CCN(C6CCOCC6)CC5)CC4)c(F)c3[nH]2)cc1 [Example 182, 7-fluoro-2-(4-(methylsulfonyl)phenyl)-6-(1′-(tetrahydro-2H-pyran-4-yl)-[1,4′-bipiperidin]-4-yl)-1H-benzo[d]imidazole] | 320 | 316 | > 50 | > 50 |
| CS(=O)(=O)c1ccc(-c2nc3ccc(C4CCN(C5CCN(CC6COC6)CC5)CC4)c(F)c3[nH]2)cc1 [Example 183, 7-fluoro-2-(4-(methylsulfonyl)phenyl)-6-(1′-(oxetan-3-ylmethyl)-[1,4′-bipiperidin]-4-yl)-1H-benzo[d]imidazole] | 110 | 110 | > 50 | > 50 |
| CC(C)CN1CCC(N2CCC(c3ccc4c(nc(-c5ccc(S(C)(=O)=O)cc5)n4C)c3F)CC2)CC1 [Example 184, 4-fluoro-5-(1′-isobutyl-[1,4′-bipiperidin]-4-yl)-1-methyl-2-(4-(methylsulfonyl)phenyl)-1H-benzo[d]imidazole] | 850 | 850 | > 50 | > 50 |
| Cn1c(-c2ccc(S(C)(=O)=O)cc2)nc2c(F)c(C3CCN(C4CCN(C5CC5)CC4)CC3)ccc21 [Example 185, 5-(1′-cyclopropyl-[1,4′-bipiperidin]-4-yl)-4-fluoro-1-methyl-2-(4-(methylsulfonyl)phenyl)-1H-benzo[d]imidazole] | 700 | 697 | > 50 | > 50 |
| Cn1c(-c2ccc(S(C)(=O)=O)cc2)nc2c(F)c(C3CCN(C4CCN(C5COC5)CC4)CC3)ccc21 [Example 186, 4-fluoro-1-methyl-2-(4-(methylsulfonyl)phenyl)-5-(1′-(oxetan-3-yl)-[1,4′-bipiperidin]-4-yl)-1H-benzo[d]imidazole] | 7300 | 7300 | > 50 | > 50 |
| Cn1c(-c2ccc(S(C)(=O)=O)cc2)nc2c(F)c(C3CCN(C4CCN(C5CCOCC5)CC4)CC3)ccc21 [Example 187, 4-fluoro-1-methyl-2-(4-(methylsulfonyl)phenyl)-5-(1′-(tetrahydro-2H-pyran-4-yl)-[1,4′-bipiperidin]-4-yl)-1H-benzo[d]imidazole] | 520 | 523 | > 50 | > 50 |
| COCCN1CCC(N2CCC(c3ccc4c(nc(-c5ccc(S(C)(=O)=O)cc5)n4C)c3F)CC2)CC1 [Example 188, 4-fluoro-5-(1′-(2-methoxyethyl)-[1,4′-bipiperidin]-4-yl)-1-methyl-2-(4-(methylsulfonyl)phenyl)-1H-benzo[d]imidazole] | 440 | 441 | > 50 | > 50 |
| Cn1c(-c2ccc(S(C)(=O)=O)cc2)nc2c(F)c(C3CCN(C4CC5CCC(C4)N5C4COC4)CC3)ccc21 (stereo not drawn) [Example 195, 4-fluoro-1-methyl-2-(4-(methylsulfonyl)phenyl)-5-(1-(8-(oxetan-3-yl)-8-azabicyclo[3.2.1]octan-3-yl)piperidin-4-yl)-1H-benzo[d]imidazole] | 490 | 490 | > 50 | > 50 |
| Cn1c(-c2ccc(S(C)(=O)=O)cc2)nc2c(F)c(C3CCN(C4CC5CCC(C4)N5C4COC4)CC3)ccc21 (stereo not drawn) [Example 196, 4-fluoro-1-methyl-2-(4-(methylsulfonyl)phenyl)-5-(1-(8-(oxetan-3-yl)-8-azabicyclo[3.2.1]octan-3-yl)piperidin-4-yl)-1H-benzo[d]imidazole] | 580 | 578 | > 50 | > 50 |
| Cn1c(-c2ccc(S(C)(=O)=O)cc2)nc2c(F)c(C3CCN(C4CC5CCC(C4)N5C4CCOCC4)CC3)ccc21 (stereo not drawn) [Example 197, 4-fluoro-1-methyl-2-(4-(methylsulfonyl)phenyl)-5-(1-(8-(tetrahydro-2H-pyran-4-yl)-8-azabicyclo[3.2.1]octan-3-yl)piperidin-4-yl)-1H-benzo[d]imidazole] | 160 | 155 | > 50 | > 50 |
| Cn1c(-c2ccc(S(C)(=O)=O)cc2)nc2c(F)c(C3CCN(C4CC5CCC(C4)N5C4CCOCC4)CC3)ccc21 (stereo not drawn) [Example 198, 4-fluoro-1-methyl-2-(4-(methylsulfonyl)phenyl)-5-(1-(8-(tetrahydro-2H-pyran-4-yl)-8-azabicyclo[3.2.1]octan-3-yl)piperidin-4-yl)-1H-benzo[d]imidazole] | 57 | 57 | > 50 | > 50 |
| CC(C)CN1CCC(N2CCC(c3cc(F)c4c(c3)nc(-c3ccc(S(C)(=O)=O)cc3)n4C)CC2)CC1 [Example 201, 7-fluoro-5-(1′-isobutyl-[1,4′-bipiperidin]-4-yl)-1-methyl-2-(4-(methylsulfonyl)phenyl)-1H-benzo[d]imidazole] | 97 | 97 | 14.4 | > 50 |
